According to paper PMC10466336, “Chemical Probe for Imaging of Polo-like Kinase 4 and Centrioles” (JACS Au, 2023):

Biological target: T1, GFP-Plk4(K41M) in transfected HeLa cells (Homo sapiens, UniProt O00444, K41M)
T1 construct: expressed in transfected cells; host or cells: HeLa
T1 sequence (O00444 1-970 K41M): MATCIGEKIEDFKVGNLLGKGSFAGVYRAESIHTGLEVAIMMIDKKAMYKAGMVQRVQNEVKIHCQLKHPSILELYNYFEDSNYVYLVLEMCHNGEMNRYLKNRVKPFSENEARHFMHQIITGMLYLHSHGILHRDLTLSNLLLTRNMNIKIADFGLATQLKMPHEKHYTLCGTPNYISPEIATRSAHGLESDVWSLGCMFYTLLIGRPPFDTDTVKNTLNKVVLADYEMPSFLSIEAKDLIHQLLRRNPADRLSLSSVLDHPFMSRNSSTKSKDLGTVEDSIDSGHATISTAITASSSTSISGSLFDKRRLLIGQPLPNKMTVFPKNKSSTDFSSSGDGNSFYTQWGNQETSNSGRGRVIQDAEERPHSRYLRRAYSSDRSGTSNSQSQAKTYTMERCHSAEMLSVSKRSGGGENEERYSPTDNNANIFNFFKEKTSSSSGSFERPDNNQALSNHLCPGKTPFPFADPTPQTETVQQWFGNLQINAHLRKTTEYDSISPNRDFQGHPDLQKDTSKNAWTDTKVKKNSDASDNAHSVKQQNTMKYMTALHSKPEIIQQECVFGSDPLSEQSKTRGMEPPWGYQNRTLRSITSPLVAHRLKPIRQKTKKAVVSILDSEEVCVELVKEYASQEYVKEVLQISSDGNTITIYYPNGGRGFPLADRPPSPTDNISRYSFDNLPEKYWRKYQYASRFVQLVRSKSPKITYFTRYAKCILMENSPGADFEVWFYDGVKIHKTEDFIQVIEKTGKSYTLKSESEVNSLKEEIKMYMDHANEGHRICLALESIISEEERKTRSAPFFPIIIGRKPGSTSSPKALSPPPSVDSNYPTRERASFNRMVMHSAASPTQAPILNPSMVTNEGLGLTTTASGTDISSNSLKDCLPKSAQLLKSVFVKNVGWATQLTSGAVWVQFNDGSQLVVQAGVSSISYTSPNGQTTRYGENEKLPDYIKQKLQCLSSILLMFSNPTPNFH
Experiment: Live-cell confocal/STED imaging of overexpressed Plk4
Type: cell-based
Settings: Cen-TCO 500 nM 1 h, tetrazine 500 nM, no wash (Figure S6)

Cc1nnc(COc2cccc3c2C2(OC3=O)c3ccc(N(C)C)cc3[Si](C)(C)c3cc(N(C)C)ccc32)nn1 [HD653, reference compound]
unspecific signal among tetrazines after Cen-TCO labeling: lowest unspecific signal
